Reference: ChEMBL document CHEMBL3525952, “A Baeyer-Villiger oxidation specifically catalyzed by human flavin-containing monooxygenase 5” (Drug Metab Dispos, 2011)

Tests used:
Liver microsome [1] = test: Drug metabolism in 50 degC treated dog liver microsomes assessed as ER-879123 formation at 10 uM after 60 mins in absence of NAD+ by LC-MS/MS method; format: ADME, Canis lupus familiaris; conditions: 1 h
Liver microsome [2] = test: Drug metabolism in dog liver microsomes assessed as ER-879123 formation at 10 uM after 60 mins in presence of NADH and FMO1 and FMO3 substrate/inhibitor methimazole by LC-MS/MS method; format: ADME, Canis lupus familiaris; conditions: 1 h
[3] = target: T1, Flavin-containing monooxygenase 5 (Homo sapiens, UniProt P49326); test: Drug metabolism assessed as human recombinant FMO5-mediated ER-879123 formation at 10 uM after 60 mins by LC-MS/MS method in presence of NADPH; format: ADME; conditions: recombinant enzyme, 1 h
T1 sequence (P49326 whole entry): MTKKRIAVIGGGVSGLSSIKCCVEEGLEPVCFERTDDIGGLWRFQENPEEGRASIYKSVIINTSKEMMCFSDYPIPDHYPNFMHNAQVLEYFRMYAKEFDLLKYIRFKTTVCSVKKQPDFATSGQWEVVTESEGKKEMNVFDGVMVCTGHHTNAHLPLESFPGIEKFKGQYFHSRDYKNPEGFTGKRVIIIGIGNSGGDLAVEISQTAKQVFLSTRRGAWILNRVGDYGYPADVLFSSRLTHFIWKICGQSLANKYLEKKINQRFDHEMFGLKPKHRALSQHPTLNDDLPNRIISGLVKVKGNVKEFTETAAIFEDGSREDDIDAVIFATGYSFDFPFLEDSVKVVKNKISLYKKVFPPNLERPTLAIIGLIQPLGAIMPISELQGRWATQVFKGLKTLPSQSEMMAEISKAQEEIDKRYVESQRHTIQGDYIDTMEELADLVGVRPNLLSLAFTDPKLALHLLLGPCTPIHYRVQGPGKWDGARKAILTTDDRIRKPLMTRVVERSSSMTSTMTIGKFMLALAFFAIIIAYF

Liver microsome [4] = test: Drug metabolism in dog liver microsomes assessed as ER-879123 formation at 10 uM after 60 mins in presence of NADH and carboxylesterase inhibitor BNPP by LC-MS/MS method; format: ADME, Canis lupus familiaris; conditions: 1 h
Liver microsome [5] = test: Drug metabolism in human liver microsomes assessed as ER-879123 formation at 10 uM after 60 mins in presence of NADH and carboxylesterase inhibitor BNPP by LC-MS/MS method; format: ADME; conditions: 1 h
Liver microsome [6] = test: Drug metabolism in human liver microsomes assessed as ER-879123 formation at 10 uM after 60 mins in presence of NADH and FMO1 and FMO3 substrate/inhibitor methimazole by LC-MS/MS method; format: ADME; conditions: 1 h
[7] = target: T1, Flavin-containing monooxygenase 5; test: Drug metabolism assessed as human recombinant FMO5-mediated ER-879123 formation in presence NADH at 10 uM after 60 mins by LC-MS/MS method; format: ADME; conditions: recombinant enzyme, 1 h
[8] = target: T2, Flavin-containing monooxygenase 3 (Homo sapiens, UniProt P31513); test: Drug metabolism assessed as human recombinant FMO3-mediated ER-879123 formation in presence NADH at 10 uM after 60 mins by LC-MS/MS method; format: ADME; conditions: recombinant enzyme, 1 h
T2 sequence (P31513 whole entry): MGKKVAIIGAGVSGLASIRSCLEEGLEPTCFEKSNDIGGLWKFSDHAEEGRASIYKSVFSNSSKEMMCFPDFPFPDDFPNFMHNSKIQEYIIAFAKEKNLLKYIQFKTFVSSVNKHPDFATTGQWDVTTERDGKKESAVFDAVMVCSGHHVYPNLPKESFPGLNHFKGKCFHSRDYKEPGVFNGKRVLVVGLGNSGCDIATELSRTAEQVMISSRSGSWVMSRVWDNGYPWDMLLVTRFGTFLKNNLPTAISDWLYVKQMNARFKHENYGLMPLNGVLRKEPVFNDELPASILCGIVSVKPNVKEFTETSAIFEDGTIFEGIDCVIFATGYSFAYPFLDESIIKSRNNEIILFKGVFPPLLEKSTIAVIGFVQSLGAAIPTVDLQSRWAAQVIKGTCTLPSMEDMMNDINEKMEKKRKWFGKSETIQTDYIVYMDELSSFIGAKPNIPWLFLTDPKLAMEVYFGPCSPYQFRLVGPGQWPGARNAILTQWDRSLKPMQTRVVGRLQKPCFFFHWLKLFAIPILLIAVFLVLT

Liver microsome [9] = test: Drug metabolism in 50 degC treated human liver microsomes assessed as ER-879123 formation at 10 uM after 60 mins in absence of NAD+ by LC-MS/MS method; format: ADME; conditions: 1 h
[10] = target: T3, Flavin-containing monooxygenase 1 (Homo sapiens, UniProt Q01740); test: Drug metabolism assessed as human recombinant FMO1-mediated ER-879123 formation at 10 uM after 60 mins by LC-MS/MS method in presence of NADPH; format: ADME; conditions: recombinant enzyme, 1 h
T3 sequence (Q01740 whole entry): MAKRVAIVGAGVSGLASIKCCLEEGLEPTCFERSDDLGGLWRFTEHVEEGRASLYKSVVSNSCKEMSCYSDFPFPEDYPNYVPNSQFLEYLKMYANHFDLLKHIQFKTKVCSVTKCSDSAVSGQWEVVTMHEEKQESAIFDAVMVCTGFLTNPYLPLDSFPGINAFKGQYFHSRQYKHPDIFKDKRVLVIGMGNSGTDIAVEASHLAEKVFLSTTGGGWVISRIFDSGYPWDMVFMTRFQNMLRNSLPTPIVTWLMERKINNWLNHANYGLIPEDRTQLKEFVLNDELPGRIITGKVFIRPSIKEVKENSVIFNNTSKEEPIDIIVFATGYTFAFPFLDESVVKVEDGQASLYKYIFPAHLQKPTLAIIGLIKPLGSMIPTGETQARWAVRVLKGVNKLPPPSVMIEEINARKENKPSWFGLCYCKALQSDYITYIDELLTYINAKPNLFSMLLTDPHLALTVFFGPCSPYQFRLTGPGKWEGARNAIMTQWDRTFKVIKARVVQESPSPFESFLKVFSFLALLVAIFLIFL

Liver microsome [11] = test: Drug metabolism in dog liver microsomes assessed as ER-879123 formation at 10 uM after 60 mins in presence of NADH by LC-MS/MS method; format: ADME, Canis lupus familiaris; conditions: 1 h
[12] = target: T3, Flavin-containing monooxygenase 1; test: Drug metabolism assessed as human recombinant FMO1-mediated ER-879123 formation in presence NADH at 10 uM after 60 mins by LC-MS/MS method; format: ADME; conditions: recombinant enzyme, 1 h
Liver microsome [13] = test: Drug metabolism in human liver microsomes assessed as ER-879123 formation at 10 uM after 60 mins in presence of NADH by LC-MS/MS method; format: ADME; conditions: 1 h
[14] = target: T2, Flavin-containing monooxygenase 3; test: Drug metabolism assessed as human recombinant FMO3-mediated ER-879123 formation at 10 uM after 60 mins by LC-MS/MS method in presence of NADPH; format: ADME; conditions: recombinant enzyme, 1 h
[15] = Drug metabolism in human liver S9 fraction assessed as ER-879123 formation at 50 uM after 60 mins in presence of NADP+ by LC-MS/MS method; format: ADME, subcellular; conditions: s9, 1 h
[16] = Drug metabolism in dog liver S9 fraction assessed as ER-879123 formation at 50 uM after 60 mins in presence of NAD+ and carboxylesterase inhibitor BNPP by LC-MS/MS method; format: ADME, subcellular, Canis lupus familiaris; conditions: 1 h
[17] = target: T1, Flavin-containing monooxygenase 5; test: Drug metabolism assessed as human recombinant FMO5-mediated ER-879123 formation in presence of rat liver cytosolic fractions at 50 uM after 60 mins by LC-MS/MS method; format: ADME, tissue-based; conditions: recombinant enzyme, 1 h
[18] = target: T1, Flavin-containing monooxygenase 5; test: Drug metabolism assessed as human recombinant FMO5-mediated ER-879123 formation in absence of human liver cytosolic fractions at 50 uM after 60 mins by LC-MS/MS method; format: ADME, tissue-based; conditions: recombinant enzyme, 1 h
[19] = Drug metabolism in human liver S9 fraction assessed as ER-879123 formation at 50 uM after 60 mins in presence of NAD+ by LC-MS/MS method; format: ADME, subcellular; conditions: s9, 1 h
[20] = target: T1, Flavin-containing monooxygenase 5; test: Drug metabolism assessed as human recombinant FMO5-mediated ER-879123 formation in presence of human liver cytosolic fractions at 50 uM after 60 mins by LC-MS/MS method; format: ADME, tissue-based; conditions: recombinant enzyme, 1 h
[21] = target: T1, Flavin-containing monooxygenase 5; test: Drug metabolism assessed as human recombinant FMO5-mediated ER-879123 formation in presence of dog liver cytosolic fractions at 50 uM after 60 mins by LC-MS/MS method; format: ADME, tissue-based; conditions: recombinant enzyme, 1 h
[22] = target: T3, Flavin-containing monooxygenase 1; test: Drug metabolism assessed as human recombinant FMO1-mediated ER-879123 formation in presence of dog liver cytosolic fractions and NAD+ at 50 uM after 60 mins by LC-MS/MS method; format: ADME, tissue-based; conditions: recombinant enzyme, 1 h
[23] = Drug metabolism in human hepatocytes assessed as ER-879123 formation at 50 uM after 120 mins in presence of NADPH by LC-MS/MS method; format: ADME, cell-based, Hepatocyte; conditions: 2 h
[24] = Drug metabolism in dog hepatocytes assessed as ER-879123 formation at 50 uM after 120 mins in presence of NADPH by LC-MS/MS method; format: ADME, cell-based, Canis lupus familiaris, Hepatocyte; conditions: 2 h
[25] = target: T1, Flavin-containing monooxygenase 5; test: Drug metabolism assessed as human recombinant FMO5-mediated ER-879123 formation in absence of rat liver cytosolic fractions at 50 uM after 60 mins by LC-MS/MS method; format: ADME, tissue-based; conditions: recombinant enzyme, 1 h
Liver microsome [26] = test: Drug metabolism in rat liver microsomes assessed as ER-879123 formation at 50 uM after 60 mins in presence of NADPH by LC-MS/MS method; format: ADME; conditions: 1 h
[27] = target: T2, Flavin-containing monooxygenase 3; test: Drug metabolism assessed as human recombinant FMO3-mediated ER-879123 formation in presence of dog liver cytosolic fractions and NAD+ at 50 uM after 60 mins by LC-MS/MS method; format: ADME, tissue-based; conditions: recombinant enzyme, 1 h
[28] = Drug metabolism in 50 degC treated human liver S9 fraction assessed as ER-879123 formation at 50 uM after 60 mins in absence of NAD+ by LC-MS/MS method; format: ADME, tissue-based; conditions: s9, 1 h
[29] = Drug metabolism in 50 degC treated dog liver S9 fraction assessed as ER-879123 formation at 50 uM after 60 mins in absence of NAD+ by LC-MS/MS method; format: ADME, tissue-based, Canis lupus familiaris; conditions: s9, 1 h
[30] = Drug metabolism in human liver S9 fraction assessed as ER-879123 formation at 50 uM after 60 mins in presence of NAD+ and FMO1 and FMO3 substrate/inhibitor methimazole by LC-MS/MS method; format: ADME, subcellular; conditions: s9, 1 h
Liver microsome [31] = test: Drug metabolism in dog liver microsomes assessed as ER-879123 formation at 50 uM after 60 mins in presence of NADPH by LC-MS/MS method; format: ADME, Canis lupus familiaris; conditions: 1 h
[32] = Drug metabolism in dog liver S9 fraction assessed as ER-879123 formation at 50 uM after 60 mins in presence of NADP+ by LC-MS/MS method; format: ADME, subcellular, Canis lupus familiaris; conditions: s9, 1 h
[33] = Drug metabolism in human liver S9 fraction assessed as ER-879123 formation at 50 uM after 60 mins in presence of NAD+ and carboxylesterase inhibitor BNPP by LC-MS/MS method; format: ADME, subcellular; conditions: 1 h
Liver microsome [34] = test: Drug metabolism in human liver microsomes assessed as ER-879123 formation at 50 uM after 60 mins in presence of NADPH by LC-MS/MS method; format: ADME; conditions: 1 h
[35] = target: T1, Flavin-containing monooxygenase 5; test: Drug metabolism assessed as human recombinant FMO5-mediated ER-879123 formation in absence of dog liver cytosolic fractions at 50 uM after 60 mins by LC-MS/MS method; format: ADME, tissue-based; conditions: recombinant enzyme, 1 h
[36] = Drug metabolism in dog liver S9 fraction assessed as ER-879123 formation at 50 uM after 60 mins in presence of NAD+ and FMO1 and FMO3 substrate/inhibitor methimazole by LC-MS/MS method; format: ADME, subcellular, Canis lupus familiaris; conditions: s9, 1 h
[37] = Drug metabolism in rat hepatocytes assessed as ER-879123 formation at 50 uM after 120 mins in presence of NADPH by LC-MS/MS method; format: ADME, cell-based, Hepatocyte; conditions: 2 h
[38] = Drug metabolism in human liver S9 fraction assessed as ER-879123 formation at 50 uM after 60 mins in presence of NAD+ and alcohol dehydrogenase inhibitor 4-methylpyrazole by LC-MS/MS method; format: ADME, subcellular; conditions: s9, 1 h
[39] = Drug metabolism in dog liver S9 fraction assessed as ER-879123 formation at 50 uM after 60 mins in presence of NAD+ and alcohol dehydrogenase inhibitor 4-methylpyrazole by LC-MS/MS method; format: ADME, subcellular, Canis lupus familiaris; conditions: s9, 1 h
[40] = Drug metabolism in dog liver S9 fraction assessed as ER-879123 formation at 50 uM after 60 mins in presence of NAD+ by LC-MS/MS method; format: ADME, subcellular, Canis lupus familiaris; conditions: s9, 1 h

Measured: Drug metabolism

O=C1CCN(Cc2ccc3c(c2)-c2n[nH]c(=O)c4cccc(c24)O3)CC1
metabolite_not_detected: Liver microsome [1] | Liver microsome [4] | Liver microsome [5] | [8] | Liver microsome [9] | [10] | [12] | [14]
metabolite_detected: Liver microsome [2] | [3] | Liver microsome [6] | [7] | Liver microsome [11] | Liver microsome [13]

O=c1[nH]nc2c3c(cccc13)Oc1ccc(CN3CCC(O)CC3)cc1-2 [E-7016]
metabolite_detected: [15] | [17] | [19] | [20] | [21] | [23] | [24] | [30] | [32] | [36] | [37] | [40]
metabolite_not_detected: [16] | [18] | [22] | [25] | Liver microsome [26] | [27] | [28] | [29] | Liver microsome [31] | [33] | Liver microsome [34] | [35] | [38] | [39]
